Source: PubChem BioAssay (NCI)
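48-hour exposure; five concentrations; linearly interpolated endpoints. GI50: concentration for 50% inhibition of growth. TGI: concentration producing complete growth inhibition.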

Columns and labels:
Test in all cases: growth of human tumour cells (NCI), 48 h
NCI-H522 lung = tested on: NCI-H522 lung
ACHN renal = tested on: ACHN renal
NCI-H460 lung = tested on: NCI-H460 lung
M19-MEL melanoma = tested on: M19-MEL melanoma
SN12C renal = tested on: SN12C renal
K-562 leukemia = tested on: K-562 leukemia
RXF 393 renal = tested on: RXF 393 renal
DMS 114 small cell lung = tested on: DMS 114 small cell lung
SF-295 CNS = tested on: SF-295 CNS
HT29 colon = tested on: HT29 colon
SNB-19 CNS = tested on: SNB-19 CNS
HOP-62 NSCLC = tested on: HOP-62 NSCLC
NCI-H226 lung = tested on: NCI-H226 lung
SF-539 CNS = tested on: SF-539 CNS
KM20L2 colon = tested on: KM20L2 colon
SK-MEL-5 melanoma = tested on: SK-MEL-5 melanoma
SW-620 colon = tested on: SW-620 colon
HCT-15 colon = tested on: HCT-15 colon
DMS 273 small cell lung = tested on: DMS 273 small cell lung
UACC-257 melanoma = tested on: UACC-257 melanoma
OVCAR-3 ovarian = tested on: OVCAR-3 ovarian
EKVX NSCLC = tested on: EKVX NSCLC
SK-MEL-28 melanoma = tested on: SK-MEL-28 melanoma
A549 NSCLC = tested on: A549 NSCLC
HOP-18 NSCLC = tested on: HOP-18 NSCLC
COLO 205 colon = tested on: COLO 205 colon
HL-60(TB) leukemia = tested on: HL-60(TB) leukemia
CCRF-CEM leukemia = tested on: CCRF-CEM leukemia
U251 CNS = tested on: U251 CNS
IGROV1 ovarian = tested on: IGROV1 ovarian
M14 melanoma = tested on: M14 melanoma
MALME-3M melanoma = tested on: MALME-3M melanoma
UACC-62 melanoma = tested on: UACC-62 melanoma
RPMI-8226 leukemia = tested on: RPMI-8226 leukemia
SK-MEL-2 melanoma = tested on: SK-MEL-2 melanoma
786-0 renal = tested on: 786-0 renal
OVCAR-8 ovarian = tested on: OVCAR-8 ovarian
SNB-75 CNS = tested on: SNB-75 CNS
LOX IMVI melanoma = tested on: LOX IMVI melanoma
TK-10 renal = tested on: TK-10 renal
NCI-H23 lung = tested on: NCI-H23 lung
DLD-1 colon = tested on: DLD-1 colon
UO-31 renal = tested on: UO-31 renal
SK-OV-3 ovarian = tested on: SK-OV-3 ovarian
KM12 colon = tested on: KM12 colon
MOLT-4 leukemia = tested on: MOLT-4 leukemia
HCT-116 colon = tested on: HCT-116 colon

With `O=C([O-])c1cc(I)cc(I)c1[OH2+].O=C([O-])c1cc(I)cc(I)c1[OH2+].[Mn+2]` as the molecule, how does the GI50 (NCI-H522 lung) read?
The GI50 was 22.2 µM.

And the TGI (NCI-H522 lung)?
The TGI was 69.2 µM.

What about the GI50 (ACHN renal) of the same molecule?
Its GI50 is 20.3 µM.

What about the TGI (ACHN renal) of the same molecule?
Its TGI is 59 µM.

And the GI50 (NCI-H460 lung)?
The GI50 was 64 µM.

And the TGI (NCI-H460 lung)?
Its TGI is over 100 µM.

And the GI50 (M19-MEL melanoma)?
The GI50 was 81.7 µM.

What about the TGI (M19-MEL melanoma) of the same molecule?
Its TGI is over 100 µM.

And the GI50 (SN12C renal)?
The GI50 was 18.9 µM.

What about the TGI (SN12C renal) of the same molecule?
Its TGI is 42.9 µM.

What about the GI50 (K-562 leukemia) of the same molecule?
The GI50 was over 100 µM.

And the TGI (K-562 leukemia)?
The TGI was over 100 µM.

And the GI50 (RXF 393 renal)?
Its GI50 is 17.8 µM.

And the TGI (RXF 393 renal)?
Its TGI is 40.2 µM.

What about the GI50 (DMS 114 small cell lung) of the same molecule?
Its GI50 is 32 µM.

What about the TGI (DMS 114 small cell lung) of the same molecule?
The TGI was over 100 µM.

And the GI50 (SF-295 CNS)?
Its GI50 is 33.5 µM.

And the TGI (SF-295 CNS)?
The TGI was over 100 µM.

What about the GI50 (HT29 colon) of the same molecule?
Its GI50 is 97.8 µM.

And the TGI (HT29 colon)?
Its TGI is over 100 µM.

What about the GI50 (SNB-19 CNS) of the same molecule?
The GI50 was 29 µM.

And the TGI (SNB-19 CNS)?
The TGI was 87.7 µM.

And the GI50 (HOP-62 NSCLC)?
The GI50 was 35.2 µM.

What about the TGI (HOP-62 NSCLC) of the same molecule?
The TGI was over 100 µM.

And the GI50 (NCI-H226 lung)?
The GI50 was 33.7 µM.

What about the TGI (NCI-H226 lung) of the same molecule?
Its TGI is 74.1 µM.

What about the GI50 (SF-539 CNS) of the same molecule?
Its GI50 is 24.8 µM.

And the TGI (SF-539 CNS)?
Its TGI is 60 µM.

What about the GI50 (KM20L2 colon) of the same molecule?
Its GI50 is over 100 µM.

And the TGI (KM20L2 colon)?
The TGI was over 100 µM.

And the GI50 (SK-MEL-5 melanoma)?
Its GI50 is over 100 µM.

And the TGI (SK-MEL-5 melanoma)?
Its TGI is over 100 µM.

And the GI50 (SW-620 colon)?
The GI50 was 53.2 µM.

What about the TGI (SW-620 colon) of the same molecule?
The TGI was over 100 µM.

And the GI50 (HCT-15 colon)?
The GI50 was over 100 µM.

What about the TGI (HCT-15 colon) of the same molecule?
The TGI was over 100 µM.

What about the GI50 (DMS 273 small cell lung) of the same molecule?
The GI50 was 37.7 µM.

And the TGI (DMS 273 small cell lung)?
Its TGI is over 100 µM.

And the GI50 (UACC-257 melanoma)?
The GI50 was 18.8 µM.

And the TGI (UACC-257 melanoma)?
Its TGI is 43.1 µM.

And the GI50 (OVCAR-3 ovarian)?
Its GI50 is 24 µM.

And the TGI (OVCAR-3 ovarian)?
Its TGI is 77.6 µM.

What about the GI50 (EKVX NSCLC) of the same molecule?
Its GI50 is 72.3 µM.

What about the TGI (EKVX NSCLC) of the same molecule?
The TGI was over 100 µM.

What about the GI50 (SK-MEL-28 melanoma) of the same molecule?
The GI50 was over 100 µM.

And the TGI (SK-MEL-28 melanoma)?
The TGI was over 100 µM.

And the GI50 (A549 NSCLC)?
The GI50 was 56.4 µM.

What about the TGI (A549 NSCLC) of the same molecule?
Its TGI is over 100 µM.

What about the GI50 (HOP-18 NSCLC) of the same molecule?
The GI50 was over 100 µM.

What about the TGI (HOP-18 NSCLC) of the same molecule?
Its TGI is over 100 µM.

And the GI50 (COLO 205 colon)?
The GI50 was over 100 µM.

What about the TGI (COLO 205 colon) of the same molecule?
The TGI was over 100 µM.

And the GI50 (HL-60(TB) leukemia)?
Its GI50 is over 100 µM.

And the TGI (HL-60(TB) leukemia)?
The TGI was over 100 µM.

And the GI50 (CCRF-CEM leukemia)?
Its GI50 is over 100 µM.

And the TGI (CCRF-CEM leukemia)?
Its TGI is over 100 µM.

And the GI50 (U251 CNS)?
The GI50 was 21.5 µM.

What about the TGI (U251 CNS) of the same molecule?
The TGI was 61.3 µM.

What about the GI50 (IGROV1 ovarian) of the same molecule?
The GI50 was 19.4 µM.

And the TGI (IGROV1 ovarian)?
Its TGI is 49.4 µM.

What about the GI50 (M14 melanoma) of the same molecule?
Its GI50 is 42.9 µM.

And the TGI (M14 melanoma)?
Its TGI is over 100 µM.

And the GI50 (MALME-3M melanoma)?
The GI50 was 33.9 µM.

And the TGI (MALME-3M melanoma)?
The TGI was over 100 µM.

And the GI50 (UACC-62 melanoma)?
Its GI50 is 45.7 µM.

And the TGI (UACC-62 melanoma)?
The TGI was over 100 µM.

What about the GI50 (RPMI-8226 leukemia) of the same molecule?
Its GI50 is over 100 µM.

And the TGI (RPMI-8226 leukemia)?
The TGI was over 100 µM.

And the GI50 (SK-MEL-2 melanoma)?
Its GI50 is 48.5 µM.

And the TGI (SK-MEL-2 melanoma)?
The TGI was over 100 µM.

What about the GI50 (786-0 renal) of the same molecule?
Its GI50 is 51 µM.

What about the TGI (786-0 renal) of the same molecule?
The TGI was over 100 µM.

And the GI50 (OVCAR-8 ovarian)?
Its GI50 is 34.2 µM.

And the TGI (OVCAR-8 ovarian)?
The TGI was over 100 µM.

And the GI50 (SNB-75 CNS)?
Its GI50 is 60.1 µM.

And the TGI (SNB-75 CNS)?
Its TGI is 99.8 µM.

What about the GI50 (LOX IMVI melanoma) of the same molecule?
Its GI50 is 46.2 µM.

And the TGI (LOX IMVI melanoma)?
Its TGI is over 100 µM.

And the GI50 (TK-10 renal)?
Its GI50 is 32.1 µM.

What about the TGI (TK-10 renal) of the same molecule?
Its TGI is over 100 µM.

And the GI50 (NCI-H23 lung)?
The GI50 was 30.4 µM.

And the TGI (NCI-H23 lung)?
Its TGI is 89.4 µM.

And the GI50 (DLD-1 colon)?
The GI50 was over 100 µM.

And the TGI (DLD-1 colon)?
The TGI was over 100 µM.

And the GI50 (UO-31 renal)?
The GI50 was 35.6 µM.

And the TGI (UO-31 renal)?
Its TGI is over 100 µM.

What about the GI50 (SK-OV-3 ovarian) of the same molecule?
Its GI50 is 20 µM.

And the TGI (SK-OV-3 ovarian)?
The TGI was 44.2 µM.

What about the GI50 (KM12 colon) of the same molecule?
Its GI50 is 67.3 µM.

What about the TGI (KM12 colon) of the same molecule?
Its TGI is over 100 µM.

What about the GI50 (MOLT-4 leukemia) of the same molecule?
Its GI50 is over 100 µM.

What about the TGI (MOLT-4 leukemia) of the same molecule?
Its TGI is over 100 µM.

What about the GI50 (HCT-116 colon) of the same molecule?
Its GI50 is 36.7 µM.

And the TGI (HCT-116 colon)?
The TGI was over 100 µM.
